Starred links: 1 amine or outer side, 2 acyl side, 3 side chain; linkers in the order of their positions; H or OH if unused. Positions of bridges follow the written chain, without caps; N, C: chain ends. Non-standard residues stand in square brackets, D forms with d. Residues, ends and D or L forms follow the SMILES beside them. *: point of attachment. hPhe(3,5-F2-4-CF3) = N[C@@H](CCc1cc(F)c(C(F)(F)F)c(F)c1)C(=O)O; hPhe(3-Cl-4-CF3) = N[C@@H](CCc1ccc(C(F)(F)F)c(Cl)c1)C(=O)O; X38 = CN([C@@H](Cc1cccc(OC(F)(F)F)c1)C(=O)[*:2])[*:1]; NMePhe(4-CF3) = CN[C@@H](Cc1ccc(C(F)(F)F)cc1)C(=O)O; X5 = CC(C)(C)NC(=O)COC[C@H](CC(=O)[*:1])N[*:2]; NMePhe(3-CN) = CN[C@@H](Cc1cccc(C#N)c1)C(=O)O; NMePhe(4-CN) = CN[C@@H](Cc1ccc(C#N)cc1)C(=O)O; NMePhe(4-Br) = CN[C@@H](Cc1ccc(Br)cc1)C(=O)O; NMePhe(4-Me) = CN[C@@H](Cc1ccc(C)cc1)C(=O)O; NMePhe(4-F) = CN[C@@H](Cc1ccc(F)cc1)C(=O)O; NMePhe(4-I) = CN[C@@H](Cc1ccc(I)cc1)C(=O)O; NMeGly(cPent) = CN[C@H](C(=O)O)C1CCCC1; NMe4Pal = CN[C@@H](Cc1ccncc1)C(=O)O; NMeCha = CN[C@@H](CC1CCCCC1)C(=O)O; NMeI = CC[C@H](C)[C@H](NC)C(=O)O; NMeD = CN[C@@H](CC(=O)O)C(=O)O; NMeL = CN[C@@H](CC(C)C)C(=O)O; Morpholide = C1CN(*)CCO1; NMeA = CN[C@@H](C)C(=O)O; Ac5c = NC1(C(=O)O)CCCC1; Aze = O=C(O)[C@@H]1CCN1; Sar = CNCC(=O)O

The target in this test is T1, Kras and SOS1 (biotin-tagged human Kras loaded with GDP, His-tagged human SOS1) (Homo sapiens, UniProt P01116, G12D).
T1 construct: made in house; host or cells: E. coli (stated for Kras only)
T1 sequence (P01116 1-188 isoform P01116-2 G12D): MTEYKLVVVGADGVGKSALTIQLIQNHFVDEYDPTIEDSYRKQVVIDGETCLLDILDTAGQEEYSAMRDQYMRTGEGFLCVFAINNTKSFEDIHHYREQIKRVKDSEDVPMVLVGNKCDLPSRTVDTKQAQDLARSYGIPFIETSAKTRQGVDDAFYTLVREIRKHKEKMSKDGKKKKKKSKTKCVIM
Kind of test: Protein-protein interaction inhibition between Kras and SOS1 (KrasGl2D-SOS PPI) using AlphaScreen. In kind it is binding. Particulars: AlphaScreen; biotin-tagged human Kras loaded with GDP, His-tagged human SOS1; read-out: KRAS G12D-SOS PPI IC50. In outline: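 Read-out is acceptor-bead light at 520-620 nm, arising when 680 nm-irradiated nickel donor beads pass singlet oxygen to streptavidin acceptors. The bead pair links His-tagged SOS1 with biotin-tagged, GDP-bound Kras from E. coli.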
On the technique in general: Alpha assays give light when donor and acceptor beads are brought close together.
As to `CC[C@H](C)[C@@H]1NC(=O)[C@H](CC(C)C)N(C)C(=O)C[C@@H](C(=O)N(C)C)N(C)C(=O)[C@H]([C@@H](C)CC)N(C)C(=O)C2(CCCC2)NC(=O)[C@H](Cc2ccc(F)cc2)N(C)C(=O)[C@H](CCc2cc(F)c(C(F)(F)F)c(F)c2)NC(=O)CN(C)C(=O)[C@H](Cc2ccc(C)cc2)N(C)C(=O)[C@@H]2CCN2C(=O)[C@H](C)N(C)C1=O` [Compound 1952] ([NMeL]I[NMeA][Aze][NMePhe(4-Me)][Sar][hPhe(3,5-F2-4-CF3)][NMePhe(4-F)][Ac5c][NMeI][NMeD]-NMe2; lactam N-11), the IC50 amounted to 8.1 nM.

On to `CC[C@H](C)[C@@H]1NC(=O)[C@H](C)N(C)C(=O)C[C@@H](C(=O)N(C)C)N(C)C(=O)[C@H]([C@@H](C)CC)N(C)C(=O)C2(CCCC2)NC(=O)[C@H](Cc2ccc(I)cc2)N(C)C(=O)[C@H](CCc2ccc(C(F)(F)F)c(Cl)c2)NC(=O)CN(C)C(=O)[C@H](Cc2ccc(C)cc2)N(C)C(=O)[C@@H]2CCN2C(=O)[C@H](C)N(C)C1=O` [Compound 1953] ([NMeA]I[NMeA][Aze][NMePhe(4-Me)][Sar][hPhe(3-Cl-4-CF3)][NMePhe(4-I)][Ac5c][NMeI][NMeD]-NMe2; lactam N-11), for which the IC50 turned out to be 51 nM.

On to `CC[C@H](C)[C@@H]1NC(=O)[C@H](C)N(C)C(=O)C[C@@H](C(=O)N(C)C)N(C)C(=O)[C@H]([C@@H](C)CC)N(C)C(=O)C2(CCCC2)NC(=O)[C@H](Cc2ccc(C#N)cc2)N(C)C(=O)[C@H](CCc2ccc(C(F)(F)F)c(Cl)c2)NC(=O)CN(C)C(=O)[C@H](Cc2ccc(C)cc2)N(C)C(=O)[C@@H]2CCN2C(=O)[C@H](C)N(C)C1=O` [Compound 1959] ([NMeA]I[NMeA][Aze][NMePhe(4-Me)][Sar][hPhe(3-Cl-4-CF3)][NMePhe(4-CN)][Ac5c][NMeI][NMeD]-NMe2; lactam N-11), for which the half-maximal inhibitory concentration (IC50) is 5.2 nM.

In the case of `CC[C@H](C)[C@@H]1NC(=O)[C@H](CC(C)C)N(C)C(=O)C[C@@H](COCC(=O)NC(C)(C)C)NC(=O)[C@H]([C@@H](C)CC)N(C)C(=O)C2(CCCC2)NC(=O)[C@@H]2CCCN2C(=O)[C@H](CCc2ccc(C(F)(F)F)c(Cl)c2)NC(=O)CN(C)C(=O)[C@H](Cc2ccc(C)cc2)N(C)C(=O)[C@@H]2CCN2C(=O)[C@H](C)N(C)C1=O` [Compound 1960] ([NMeL]I[NMeA][Aze][NMePhe(4-Me)][Sar][hPhe(3-Cl-4-CF3)]P[Ac5c][NMeI]; linker N-C via X5), the IC50 came out at 56 nM.

Turning to `CC[C@H](C)[C@@H]1NC(=O)[C@H](CC(C)C)N(C)C(=O)C[C@@H](C(=O)N(C)C)N(C)C(=O)[C@H]([C@@H](C)CC)N(C)C(=O)C2(CCCC2)NC(=O)[C@H](Cc2ccncc2)N(C)C(=O)[C@H](CCc2ccc(C(F)(F)F)c(Cl)c2)NC(=O)CN(C)C(=O)[C@H](Cc2ccc(C)cc2)N(C)C(=O)[C@@H]2CCN2C(=O)[C@H](C)N(C)C1=O` [Compound 1962] ([NMeL]I[NMeA][Aze][NMePhe(4-Me)][Sar][hPhe(3-Cl-4-CF3)][NMe4Pal][Ac5c][NMeI][NMeD]-NMe2; lactam N-11), the IC50 was found to be 1.4 nM.

With `CC[C@H](C)[C@@H]1NC(=O)[C@H](CC(C)C)N(C)C(=O)C[C@@H](C(=O)N(C)C)N(C)C(=O)[C@H]([C@@H](C)CC)N(C)C(=O)C2(CCCC2)NC(=O)[C@H](Cc2ccc(Br)cc2)N(C)C(=O)[C@H](CCc2ccc(C(F)(F)F)c(Cl)c2)NC(=O)CN(C)C(=O)[C@H](Cc2ccc(C)cc2)N(C)C(=O)[C@@H]2CCN2C(=O)[C@H](C)N(C)C1=O` [Compound 1964] ([NMeL]I[NMeA][Aze][NMePhe(4-Me)][Sar][hPhe(3-Cl-4-CF3)][NMePhe(4-Br)][Ac5c][NMeI][NMeD]-NMe2; lactam N-11), the 50% inhibitory concentration (IC50) amounted to 36 nM.

`CC[C@H](C)[C@@H]1NC(=O)[C@H](CC(C)C)N(C)C(=O)C[C@@H](C(=O)N(C)C)N(C)C(=O)[C@H]([C@@H](C)CC)N(C)C(=O)C2(CCCC2)NC(=O)[C@H](Cc2cccc(OC(F)(F)F)c2)N(C)C(=O)[C@H](CCc2ccc(C(F)(F)F)c(Cl)c2)NC(=O)CN(C)C(=O)[C@H](Cc2ccc(C)cc2)N(C)C(=O)[C@@H]2CCN2C(=O)[C@H](C)N(C)C1=O` [Compound 1970] ([NMeL]I[NMeA][Aze][NMePhe(4-Me)][Sar][hPhe(3-Cl-4-CF3)][X38][Ac5c][NMeI][NMeD]-NMe2; lactam N-11): the IC50 is 52 nM.

In the case of `CC[C@H](C)[C@@H]1NC(=O)[C@H](CC(C)C)N(C)C(=O)C[C@@H](C(=O)N(C)C)N(C)C(=O)[C@H]([C@@H](C)CC)N(C)C(=O)[C@H](C)NC(=O)[C@H](Cc2ccncc2)N(C)C(=O)[C@H](CCc2ccc(C(F)(F)F)c(Cl)c2)NC(=O)CN(C)C(=O)[C@H](Cc2ccc(C)cc2)N(C)C(=O)[C@@H]2CCN2C(=O)[C@H](C)N(C)C1=O` [Compound 1973] ([NMeL]I[NMeA][Aze][NMePhe(4-Me)][Sar][hPhe(3-Cl-4-CF3)][NMe4Pal]A[NMeI][NMeD]-NMe2; lactam N-11), the half-maximal inhibitory concentration (IC50) stood at 7.1 nM.

Regarding `CC[C@H](C)[C@@H]1NC(=O)[C@H](CC(C)C)N(C)C(=O)C[C@@H](C(=O)N2CCOCC2)N(C)C(=O)[C@H]([C@@H](C)CC)N(C)C(=O)C2(CCCC2)NC(=O)[C@@H]2CCCN2C(=O)[C@H](CCc2ccc(C(F)(F)F)c(Cl)c2)NC(=O)CN(C)C(=O)[C@H](CC2CCCCC2)N(C)C(=O)CN(C)C(=O)CN(C)C1=O` [Compound 1979] ([NMeL]I[Sar][Sar][NMeCha][Sar][hPhe(3-Cl-4-CF3)]P[Ac5c][NMeI][NMeD]-Morpholide; lactam N-11), the half-maximal inhibitory concentration (IC50) was 0.64 nM.

On to `CC[C@H](C)[C@@H]1NC(=O)[C@H](C)N(C)C(=O)C[C@@H](C(=O)N(C)C)N(C)C(=O)[C@H]([C@@H](C)CC)N(C)C(=O)C2(CCCC2)NC(=O)[C@H](Cc2cccc(C#N)c2)N(C)C(=O)[C@H](CCc2ccc(C(F)(F)F)c(Cl)c2)NC(=O)CN(C)C(=O)[C@H](Cc2ccc(C)cc2)N(C)C(=O)[C@@H]2CCN2C(=O)[C@H](C)N(C)C1=O` [Compound 1981] ([NMeA]I[NMeA][Aze][NMePhe(4-Me)][Sar][hPhe(3-Cl-4-CF3)][NMePhe(3-CN)][Ac5c][NMeI][NMeD]-NMe2; lactam N-11), for which the half-inhibitory concentration (IC50) was 5.1 nM.

On to `CC[C@H](C)[C@@H]1NC(=O)[C@H](CC(C)C)N(C)C(=O)C[C@@H](C(=O)N(C)C)N(C)C(=O)[C@H](C2CCCC2)N(C)C(=O)[C@H](C(C)C)NC(=O)[C@H](Cc2ccncc2)N(C)C(=O)[C@H](CCc2ccc(C(F)(F)F)c(Cl)c2)NC(=O)CN(C)C(=O)[C@H](CC2CCCCC2)N(C)C(=O)[C@@H]2CCN2C(=O)[C@H](C)N(C)C1=O` [Compound 1982] ([NMeL]I[NMeA][Aze][NMeCha][Sar][hPhe(3-Cl-4-CF3)][NMe4Pal]V[NMeGly(cPent)][NMeD]-NMe2; lactam N-11), for which the IC50 amounted to 47 nM.

As to `CC[C@H](C)[C@@H]1NC(=O)[C@H](C)N(C)C(=O)C[C@@H](C(=O)N(C)C)N(C)C(=O)[C@H]([C@@H](C)CC)N(C)C(=O)C2(CCCC2)NC(=O)[C@H](Cc2ccc(F)cc2)N(C)C(=O)[C@H](CCc2cc(F)c(C(F)(F)F)c(F)c2)NC(=O)CN(C)C(=O)[C@H](Cc2ccc(C(F)(F)F)cc2)N(C)C(=O)[C@@H]2CCN2C(=O)[C@H](C)N(C)C1=O` [Compound 1986] ([NMeA]I[NMeA][Aze][NMePhe(4-CF3)][Sar][hPhe(3,5-F2-4-CF3)][NMePhe(4-F)][Ac5c][NMeI][NMeD]-NMe2; lactam N-11), the 50% inhibitory concentration (IC50) is 11 nM.

One may read the IC50 as the midpoint of a concentration-inhibition curve.
